Results taken from PMC12670405, “Second-Generation AURKA-Targeting PROTACs: Structural Optimization toward in Vivo Degradation in Neuroblastoma” (Journal of Medicinal Chemistry, 2025).

Experiments:
Assay in all cases: KINOMEscan scanMAX
Assay type in all cases: binding
EGFR(L747-T751del,Sins) = tested on: EGFR(L747-T751del,Sins)
Description: (§1) The kinome-wide binding assay was performed by Eurofins Discovery using the scanMAX screening platform. More information can be found on the Eurofins Discovery Web site.

DCAMKL3 = target: T1, DCAMKL3 (Homo sapiens, UniProt Q9C098); settings: read-out: Percent Control
T1 construct: purchased Eurofins Discovery (DiscoverX KINOMEscan scanMAX)
Description: as §1

[1] = target: T2, RSK3(Kin.Dom.2-C-terminal) (Homo sapiens, UniProt Q15349); settings: read-out: Percent Control
T2 construct: RSK3(Kin.Dom.2-C-terminal); purchased Eurofins Discovery (DiscoverX KINOMEscan scanMAX)
Description: as §1

CDKL1 = target: T3, CDKL1 (Homo sapiens, UniProt Q00532); settings: read-out: Percent Control
T3 construct: purchased Eurofins Discovery (DiscoverX KINOMEscan scanMAX)
Description: as §1

TAK1 = target: T4, TAK1 (Homo sapiens, UniProt O43318); settings: read-out: Percent Control
T4 construct: purchased Eurofins Discovery (DiscoverX KINOMEscan scanMAX)
Description: as §1

EPHA8 = target: T5, EPHA8 (Homo sapiens, UniProt P29322); settings: read-out: Percent Control
T5 construct: purchased Eurofins Discovery (DiscoverX KINOMEscan scanMAX)
Description: as §1

CLK2 = target: T6, CLK2 (Homo sapiens, UniProt P49760); settings: read-out: Percent Control
T6 construct: purchased Eurofins Discovery (DiscoverX KINOMEscan scanMAX)
Description: as §1

HASPIN = target: T7, HASPIN (Homo sapiens, UniProt Q8TF76); settings: read-out: Percent Control
T7 construct: purchased Eurofins Discovery (DiscoverX KINOMEscan scanMAX)
Description: as §1

TIE2 = target: T8, TIE2 (Homo sapiens, UniProt Q02763); settings: read-out: Percent Control
T8 construct: purchased Eurofins Discovery (DiscoverX KINOMEscan scanMAX)
Description: as §1

FLT3(D835V) = target: T9, FLT3(D835V) (Homo sapiens, UniProt P36888, D835V); settings: read-out: Percent Control
T9 construct: purchased Eurofins Discovery (DiscoverX KINOMEscan scanMAX)
Description: as §1

FRK = target: T10, FRK (Homo sapiens, UniProt P42685); settings: read-out: Percent Control
T10 construct: purchased Eurofins Discovery (DiscoverX KINOMEscan scanMAX)
Description: as §1

SNRK = target: T11, SNRK (Homo sapiens, UniProt Q9NRH2); settings: read-out: Percent Control
T11 construct: purchased Eurofins Discovery (DiscoverX KINOMEscan scanMAX)
T11 sequence (Q9NRH2 whole entry): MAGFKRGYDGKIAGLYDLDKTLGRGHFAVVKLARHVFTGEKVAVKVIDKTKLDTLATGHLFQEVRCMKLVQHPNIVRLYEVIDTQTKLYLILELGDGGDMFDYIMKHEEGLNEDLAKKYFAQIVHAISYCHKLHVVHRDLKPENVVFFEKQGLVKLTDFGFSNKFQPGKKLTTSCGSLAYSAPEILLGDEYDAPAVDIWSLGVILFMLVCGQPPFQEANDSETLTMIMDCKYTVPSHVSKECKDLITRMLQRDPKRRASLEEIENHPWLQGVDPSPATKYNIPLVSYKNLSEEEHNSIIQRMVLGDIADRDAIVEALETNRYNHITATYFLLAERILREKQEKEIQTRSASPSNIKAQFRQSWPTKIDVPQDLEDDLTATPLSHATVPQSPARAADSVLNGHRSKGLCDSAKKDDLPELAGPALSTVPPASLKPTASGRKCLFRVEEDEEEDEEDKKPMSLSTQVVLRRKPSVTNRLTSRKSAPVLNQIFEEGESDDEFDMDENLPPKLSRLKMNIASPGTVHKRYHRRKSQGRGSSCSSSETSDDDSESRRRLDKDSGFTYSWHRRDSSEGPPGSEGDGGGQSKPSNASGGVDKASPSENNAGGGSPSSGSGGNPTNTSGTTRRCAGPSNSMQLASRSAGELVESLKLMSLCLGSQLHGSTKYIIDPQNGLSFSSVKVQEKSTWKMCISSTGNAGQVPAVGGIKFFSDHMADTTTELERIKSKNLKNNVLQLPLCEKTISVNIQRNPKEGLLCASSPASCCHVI
Description: as §1

MST1R = target: T12, MST1R (Homo sapiens, UniProt Q04912); settings: read-out: Percent Control
T12 construct: purchased Eurofins Discovery (DiscoverX KINOMEscan scanMAX)
Description: as §1

WNK4 = target: T13, WNK4 (Homo sapiens, UniProt Q96J92); settings: read-out: Percent Control
T13 construct: purchased Eurofins Discovery (DiscoverX KINOMEscan scanMAX)
Description: as §1

CDK5 = target: T14, CDK5 (Homo sapiens, UniProt Q00535); settings: read-out: Percent Control
T14 construct: purchased Eurofins Discovery (DiscoverX KINOMEscan scanMAX)
T14 sequence (Q00535 whole entry): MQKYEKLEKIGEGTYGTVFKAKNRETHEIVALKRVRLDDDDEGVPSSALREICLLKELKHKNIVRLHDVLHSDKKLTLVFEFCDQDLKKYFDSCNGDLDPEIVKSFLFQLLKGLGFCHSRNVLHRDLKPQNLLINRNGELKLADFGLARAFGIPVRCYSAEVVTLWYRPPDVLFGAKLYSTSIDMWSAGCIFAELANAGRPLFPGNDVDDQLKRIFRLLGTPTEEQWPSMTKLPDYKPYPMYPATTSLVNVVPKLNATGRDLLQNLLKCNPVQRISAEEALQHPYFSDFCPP
Description: as §1

KIT(D816H) = target: T15, KIT(D816H) (Homo sapiens, UniProt P10721, D816H); settings: read-out: Percent Control
T15 construct: purchased Eurofins Discovery (DiscoverX KINOMEscan scanMAX)
Description: as §1

MYLK2 = target: T16, MYLK2 (Homo sapiens, UniProt Q9H1R3); settings: read-out: Percent Control
T16 construct: purchased Eurofins Discovery (DiscoverX KINOMEscan scanMAX)
Description: as §1

[2] = target: T17, RSK4(Kin.Dom.2-C-terminal) (Homo sapiens, UniProt Q9UK32); settings: read-out: Percent Control
T17 construct: RSK4(Kin.Dom.2-C-terminal); purchased Eurofins Discovery (DiscoverX KINOMEscan scanMAX)
T17 sequence (Q9UK32 401-745 limits assumed): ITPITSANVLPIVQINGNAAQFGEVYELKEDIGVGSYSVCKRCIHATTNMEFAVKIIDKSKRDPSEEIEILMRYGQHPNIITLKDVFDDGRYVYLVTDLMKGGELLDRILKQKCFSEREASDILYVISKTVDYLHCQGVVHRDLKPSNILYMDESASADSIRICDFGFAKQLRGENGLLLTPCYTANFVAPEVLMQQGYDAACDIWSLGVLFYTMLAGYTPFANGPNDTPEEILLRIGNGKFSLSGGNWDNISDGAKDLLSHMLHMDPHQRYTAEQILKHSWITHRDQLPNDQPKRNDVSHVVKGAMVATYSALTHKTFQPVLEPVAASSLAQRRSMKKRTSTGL
Description: as §1

CSF1R-autoinhibited = target: T18, CSF1R-autoinhibited (Homo sapiens, UniProt P07333); settings: read-out: Percent Control
T18 construct: purchased Eurofins Discovery (DiscoverX KINOMEscan scanMAX)
T18 sequence (P07333 539-972 limits assumed): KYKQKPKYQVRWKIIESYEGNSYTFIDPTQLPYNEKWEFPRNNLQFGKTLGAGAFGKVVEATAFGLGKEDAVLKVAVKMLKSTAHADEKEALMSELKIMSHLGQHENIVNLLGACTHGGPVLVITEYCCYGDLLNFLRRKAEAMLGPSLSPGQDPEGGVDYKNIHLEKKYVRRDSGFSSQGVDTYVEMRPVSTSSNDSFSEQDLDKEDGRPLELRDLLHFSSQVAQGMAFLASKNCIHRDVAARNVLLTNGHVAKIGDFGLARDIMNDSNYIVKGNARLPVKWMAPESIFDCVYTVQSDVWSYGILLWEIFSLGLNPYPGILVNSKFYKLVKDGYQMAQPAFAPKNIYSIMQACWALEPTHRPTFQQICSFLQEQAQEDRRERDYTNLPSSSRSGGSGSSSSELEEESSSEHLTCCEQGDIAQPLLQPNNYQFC
Description: as §1

PLK4 = target: T19, PLK4 (Homo sapiens, UniProt O00444); settings: read-out: Percent Control
T19 construct: purchased Eurofins Discovery (DiscoverX KINOMEscan scanMAX)
T19 sequence (O00444 whole entry): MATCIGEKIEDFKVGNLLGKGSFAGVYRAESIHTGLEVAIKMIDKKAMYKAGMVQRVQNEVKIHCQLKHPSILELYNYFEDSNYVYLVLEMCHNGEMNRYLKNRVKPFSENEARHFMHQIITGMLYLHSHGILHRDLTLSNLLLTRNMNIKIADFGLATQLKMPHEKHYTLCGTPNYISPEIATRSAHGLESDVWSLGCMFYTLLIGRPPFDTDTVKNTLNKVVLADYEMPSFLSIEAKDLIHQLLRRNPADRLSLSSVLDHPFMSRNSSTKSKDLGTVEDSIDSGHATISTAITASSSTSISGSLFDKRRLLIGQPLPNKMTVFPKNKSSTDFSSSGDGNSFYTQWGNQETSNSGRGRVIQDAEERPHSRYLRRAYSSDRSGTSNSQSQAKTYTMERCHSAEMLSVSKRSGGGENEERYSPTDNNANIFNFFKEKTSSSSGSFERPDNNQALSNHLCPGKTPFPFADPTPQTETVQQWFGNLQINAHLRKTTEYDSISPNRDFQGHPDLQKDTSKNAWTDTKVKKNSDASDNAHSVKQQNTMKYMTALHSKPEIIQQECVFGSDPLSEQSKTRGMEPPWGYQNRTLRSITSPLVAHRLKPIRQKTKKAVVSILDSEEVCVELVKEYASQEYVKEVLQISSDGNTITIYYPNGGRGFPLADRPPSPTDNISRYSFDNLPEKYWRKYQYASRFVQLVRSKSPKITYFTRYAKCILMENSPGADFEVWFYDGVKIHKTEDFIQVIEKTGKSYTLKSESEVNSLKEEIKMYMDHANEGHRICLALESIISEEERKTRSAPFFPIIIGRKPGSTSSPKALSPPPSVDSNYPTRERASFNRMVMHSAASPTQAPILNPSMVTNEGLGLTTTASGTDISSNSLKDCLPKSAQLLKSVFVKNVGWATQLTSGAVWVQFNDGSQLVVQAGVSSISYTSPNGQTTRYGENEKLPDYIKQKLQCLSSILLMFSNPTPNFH
Description: as §1

[3] = target: T20, ABL1(Q252H)-nonphosphorylated (Homo sapiens, UniProt P00519, Q252H); settings: read-out: Percent Control
T20 construct: purchased Eurofins Discovery (DiscoverX KINOMEscan scanMAX)
Description: as §1

PIM2 = target: T21, PIM2 (Homo sapiens, UniProt Q9P1W9); settings: read-out: Percent Control
T21 construct: purchased Eurofins Discovery (DiscoverX KINOMEscan scanMAX)
Description: as §1

YSK4 = target: T22, YSK4 (Homo sapiens, UniProt Q56UN5); settings: read-out: Percent Control
T22 construct: purchased Eurofins Discovery (DiscoverX KINOMEscan scanMAX)
Description: as §1

AURKC = target: T23, AURKC (Homo sapiens, UniProt Q9UQB9); settings: read-out: Percent Control
T23 construct: purchased Eurofins Discovery (DiscoverX KINOMEscan scanMAX)
Description: as §1

[4] = target: T24, ABL1(H396P)-phosphorylated (Homo sapiens, UniProt P00519, H396P); settings: read-out: Percent Control
T24 construct: purchased Eurofins Discovery (DiscoverX KINOMEscan scanMAX)
Description: as §1

CAMKK2 = target: T25, CAMKK2 (Homo sapiens, UniProt Q96RR4); settings: read-out: Percent Control
T25 construct: purchased Eurofins Discovery (DiscoverX KINOMEscan scanMAX)
T25 sequence (Q96RR4 whole entry): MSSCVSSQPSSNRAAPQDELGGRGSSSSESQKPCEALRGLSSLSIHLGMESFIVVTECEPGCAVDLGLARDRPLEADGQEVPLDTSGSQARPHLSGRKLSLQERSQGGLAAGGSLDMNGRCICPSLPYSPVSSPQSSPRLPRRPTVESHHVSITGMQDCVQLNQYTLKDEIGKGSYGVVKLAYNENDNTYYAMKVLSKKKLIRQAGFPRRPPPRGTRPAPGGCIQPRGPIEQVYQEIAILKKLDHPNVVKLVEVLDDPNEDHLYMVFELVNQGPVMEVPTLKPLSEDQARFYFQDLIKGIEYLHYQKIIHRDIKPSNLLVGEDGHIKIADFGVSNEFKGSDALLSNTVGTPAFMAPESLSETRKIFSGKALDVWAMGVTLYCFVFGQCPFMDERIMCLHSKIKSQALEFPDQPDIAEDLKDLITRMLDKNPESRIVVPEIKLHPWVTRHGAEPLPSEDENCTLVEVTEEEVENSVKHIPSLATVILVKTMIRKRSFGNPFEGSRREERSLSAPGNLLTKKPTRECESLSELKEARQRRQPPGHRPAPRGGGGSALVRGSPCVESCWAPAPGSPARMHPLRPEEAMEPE
Description: as §1

[5] = target: T26, RPS6KA5(Kin.Dom.2-C-terminal) (Homo sapiens, UniProt O75582); settings: read-out: Percent Control
T26 construct: RPS6KA5(Kin.Dom.2-C-terminal); purchased Eurofins Discovery (DiscoverX KINOMEscan scanMAX)
Description: as §1

[6] = target: T27, JAK1(JH2domain-pseudokinase) (Homo sapiens, UniProt P23458); settings: read-out: Percent Control
T27 construct: JAK1(JH2domain-pseudokinase); purchased Eurofins Discovery (DiscoverX KINOMEscan scanMAX)
Description: as §1

MARK2 = target: T28, MARK2 (Homo sapiens, UniProt Q7KZI7); settings: read-out: Percent Control
T28 construct: purchased Eurofins Discovery (DiscoverX KINOMEscan scanMAX)
T28 sequence (Q7KZI7 whole entry): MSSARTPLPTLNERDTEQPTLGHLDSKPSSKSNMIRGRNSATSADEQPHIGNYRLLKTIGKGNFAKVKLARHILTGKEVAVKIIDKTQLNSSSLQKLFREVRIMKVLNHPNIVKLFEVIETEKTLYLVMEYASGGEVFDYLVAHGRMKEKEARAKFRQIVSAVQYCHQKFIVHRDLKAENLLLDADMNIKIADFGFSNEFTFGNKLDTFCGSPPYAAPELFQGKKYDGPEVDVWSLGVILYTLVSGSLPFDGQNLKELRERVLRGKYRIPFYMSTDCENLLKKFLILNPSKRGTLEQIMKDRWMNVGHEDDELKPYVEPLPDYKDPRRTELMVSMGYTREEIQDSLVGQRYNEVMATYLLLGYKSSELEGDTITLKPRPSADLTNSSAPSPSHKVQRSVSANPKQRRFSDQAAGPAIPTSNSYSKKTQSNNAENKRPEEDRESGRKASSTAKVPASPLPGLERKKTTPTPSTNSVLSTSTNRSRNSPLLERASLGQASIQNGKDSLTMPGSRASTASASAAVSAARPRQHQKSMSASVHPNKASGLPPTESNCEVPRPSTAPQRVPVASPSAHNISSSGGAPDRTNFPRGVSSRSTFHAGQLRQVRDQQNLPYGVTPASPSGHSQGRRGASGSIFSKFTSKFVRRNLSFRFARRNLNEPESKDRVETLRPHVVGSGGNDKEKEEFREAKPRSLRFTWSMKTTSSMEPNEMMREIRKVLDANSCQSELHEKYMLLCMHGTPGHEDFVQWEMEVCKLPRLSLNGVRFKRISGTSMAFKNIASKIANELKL
Description: as §1

BRSK1 = target: T29, BRSK1 (Homo sapiens, UniProt Q8TDC3); settings: read-out: Percent Control
T29 construct: purchased Eurofins Discovery (DiscoverX KINOMEscan scanMAX)
Description: as §1

SRPK1 = target: T30, SRPK1 (Homo sapiens, UniProt Q96SB4); settings: read-out: Percent Control
T30 construct: purchased Eurofins Discovery (DiscoverX KINOMEscan scanMAX)
T30 sequence (Q96SB4 whole entry): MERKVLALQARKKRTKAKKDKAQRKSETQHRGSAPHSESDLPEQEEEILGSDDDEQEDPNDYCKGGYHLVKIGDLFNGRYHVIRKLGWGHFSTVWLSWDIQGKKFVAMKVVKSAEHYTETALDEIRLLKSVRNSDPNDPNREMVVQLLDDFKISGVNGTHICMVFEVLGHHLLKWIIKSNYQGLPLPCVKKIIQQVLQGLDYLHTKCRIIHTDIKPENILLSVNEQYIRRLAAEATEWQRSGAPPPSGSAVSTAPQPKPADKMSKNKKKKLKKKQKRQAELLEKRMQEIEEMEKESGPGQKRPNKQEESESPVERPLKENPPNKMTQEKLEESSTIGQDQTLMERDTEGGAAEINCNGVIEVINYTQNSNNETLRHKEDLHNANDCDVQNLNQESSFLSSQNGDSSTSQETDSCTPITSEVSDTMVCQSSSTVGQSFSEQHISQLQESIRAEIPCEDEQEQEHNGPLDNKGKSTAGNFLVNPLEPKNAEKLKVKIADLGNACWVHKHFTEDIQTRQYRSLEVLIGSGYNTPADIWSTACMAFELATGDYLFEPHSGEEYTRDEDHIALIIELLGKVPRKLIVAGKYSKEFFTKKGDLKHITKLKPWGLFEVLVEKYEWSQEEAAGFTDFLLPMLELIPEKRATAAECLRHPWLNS
Description: as §1

GAK = target: T31, GAK (Homo sapiens, UniProt O14976); settings: read-out: Percent Control
T31 construct: purchased Eurofins Discovery (DiscoverX KINOMEscan scanMAX)
Description: as §1

**Q.** What does the source list for `Cc1cc(Nc2ccc(F)c(CC3(C(=O)N4CCC(F)(CN5CCN(c6ccc(N7CCC(=O)NC7=O)cn6)CC5)CC4)CCN(Cc4cccc(Cl)c4F)CC3)n2)n[nH]1` [SK5527]?
**A.** Percent Control (EGFR(L747-T751del,Sins); 100 nM): 83%; Percent Control (EGFR(L747-T751del,Sins); 1000 nM): 74%; remaining binding at 0.1 µM (DCAMKL3; 100 nM): 100%; remaining binding at 1 µM (DCAMKL3; 1000 nM): 100%; remaining binding at 0.1 µM ([1]; 100 nM): 88%; remaining binding at 1 µM ([1]; 1000 nM): 92%; remaining binding at 0.1 µM (CDKL1; 100 nM): 99%; remaining binding at 1 µM (CDKL1; 1000 nM): 94%; remaining binding at 0.1 µM (TAK1; 100 nM): 74%; remaining binding at 1 µM (TAK1; 1000 nM): 100%; remaining binding at 0.1 µM (EPHA8; 100 nM): 91%; remaining binding at 1 µM (EPHA8; 1000 nM): 81%; remaining binding at 0.1 µM (CLK2; 100 nM): 88%; remaining binding at 1 µM (CLK2; 1000 nM): 93%; remaining binding at 0.1 µM (HASPIN; 100 nM): 79%; remaining binding at 1 µM (HASPIN; 1000 nM): 70%; remaining binding at 0.1 µM (TIE2; 100 nM): 100%; remaining binding at 1 µM (TIE2; 1000 nM): 100%; remaining binding at 0.1 µM (FLT3(D835V); 100 nM): 100%; remaining binding at 1 µM (FLT3(D835V); 1000 nM): 41%; remaining binding at 0.1 µM (FRK; 100 nM): 100%; remaining binding at 1 µM (FRK; 1000 nM): 96%; remaining binding at 0.1 µM (SNRK; 100 nM): 71%; remaining binding at 1 µM (SNRK; 1000 nM): 53%; remaining binding at 0.1 µM (MST1R; 100 nM): 100%; remaining binding at 1 µM (MST1R; 1000 nM): 100%; remaining binding at 0.1 µM (WNK4; 100 nM): 80%; remaining binding at 1 µM (WNK4; 1000 nM): 95%; remaining binding at 0.1 µM (CDK5; 100 nM): 100%; remaining binding at 1 µM (CDK5; 1000 nM): 100%; remaining binding at 0.1 µM (KIT(D816H); 100 nM): 100%; remaining binding at 1 µM (KIT(D816H); 1000 nM): 100%; remaining binding at 0.1 µM (MYLK2; 100 nM): 100%; remaining binding at 1 µM (MYLK2; 1000 nM): 100%; remaining binding at 0.1 µM ([2]; 100 nM): 75%; remaining binding at 1 µM ([2]; 1000 nM): 80%; remaining binding at 0.1 µM (CSF1R-autoinhibited; 100 nM): 100%; remaining binding at 1 µM (CSF1R-autoinhibited; 1000 nM): 100%; remaining binding at 0.1 µM (PLK4; 100 nM): 76%; remaining binding at 1 µM (PLK4; 1000 nM): 29%; remaining binding at 0.1 µM ([3]; 100 nM): 63%; remaining binding at 1 µM ([3]; 1000 nM): 15%; remaining binding at 0.1 µM (PIM2; 100 nM): 60%; remaining binding at 1 µM (PIM2; 1000 nM): 71%; remaining binding at 0.1 µM (YSK4; 100 nM): 72%; remaining binding at 1 µM (YSK4; 1000 nM): 72%; remaining binding at 0.1 µM (AURKC; 100 nM): 100%; remaining binding at 1 µM (AURKC; 1000 nM): 85%; remaining binding at 0.1 µM ([4]; 100 nM): 88%; remaining binding at 1 µM ([4]; 1000 nM): 70%; remaining binding at 0.1 µM (CAMKK2; 100 nM): 100%; remaining binding at 1 µM (CAMKK2; 1000 nM): 100%; remaining binding at 0.1 µM ([5]; 100 nM): 100%; remaining binding at 1 µM ([5]; 1000 nM): 96%; remaining binding at 0.1 µM ([6]; 100 nM): 94%; remaining binding at 1 µM ([6]; 1000 nM): 86%; remaining binding at 0.1 µM (MARK2; 100 nM): 91%; remaining binding at 1 µM (MARK2; 1000 nM): 62%; remaining binding at 0.1 µM (BRSK1; 100 nM): 100%; remaining binding at 1 µM (BRSK1; 1000 nM): 98%; remaining binding at 0.1 µM (SRPK1; 100 nM): 93%; remaining binding at 1 µM (SRPK1; 1000 nM): 100%; remaining binding at 0.1 µM (GAK; 100 nM): 88%; remaining binding at 1 µM (GAK; 1000 nM): 99%
